Patent US8309546B2, “Morpholinopurine derivatives” (Daiichi Sankyo Company, Limited, priority 2008, dated 2012)

Legend:
[1] = test system: human endometrial cancer cell strain AN3CA; assay: Cell growth inhibition test (MTT), AN3CA; type: cell-based; conditions: AN3-CA, 72 h, 3 days culture, read-out: concentration exhibiting anti-cell effect (GI50)
Procedure, shortened: (§1)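 Living cells were counted by MTT reduction (4 h; formazan dissolved in DMSO, A540) after 3-day compound exposure at 37° C, 5% CO2. Seeding was 5000 (AN3CA), 1000 (IGROV1) or 5000 (HT29) cells/well, dosing the following day. Growth rate T/C % used pre-dose baseline; GI50 interpolated at 50%.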

[2] = test system: human colon cancer cell strain HT29; assay: Cell growth inhibition test (MTT), HT29; type: cell-based; conditions: HT-29, 72 h, HT29, 3 days culture, read-out: concentration exhibiting anti-cell effect (GI50)
Procedure, shortened: as §1

PI3Kα = PI3Kα (Homo sapiens, UniProt P42336); assay: PI3K kinase activity inhibition assay; type: biochemical; conditions: Kinase-Glo Plus ATP detection, read-out: IC50 against PI3K
Procedure, shortened: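 PI3Kα (50 nM solution) was reacted with 30 μM ATP and 45 μM PIP2 solutions, each in HEPES pH 7.4 with MgCl2 and DTT, for 2 h at room temperature. Remaining ATP was measured by Kinase-Glo Plus luminescence, and inhibition was derived from ATP consumed. IC50 was taken from curve fitting of the serial dilutions.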

[3] = biological target: T1, human mTOR (His-tagged mTOR (1362C)) (Homo sapiens, UniProt P42345); assay: mTOR kinase activity inhibition assay; type: biochemical; conditions: HTRF, read-out: IC50 against mTOR
T1 construct: the 1362 to 2549 amino acid portion on the C terminus side of human mTOR; His tag (N); made in house
Procedure, shortened: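 Crude His-tagged mTOR (aa 1362–2549) from stable HEK293 cells, with 8 μg/ml biotinylated peptide in 50 mM HEPES pH 7.5, 20 mM MnCl2; compound diluted in 20 μM ATP solution, reaction 3 h at room temperature. Phospho-peptide detected by HTRF (anti-phospho-S6K Thr389 cryptate/streptavidin-XL665, overnight at 4°C), 665/620 nm ratio. IC50 derived from curve fit of % inhibition.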

[4] = test system: human ovary cancer cell strain IGROV1; assay: Cell growth inhibition test (MTT), IGROV1; type: cell-based; conditions: IGROV-1, 72 h, IGROV1, 3 days culture, read-out: concentration exhibiting anti-cell effect (GI50)
Procedure, shortened: as §1

T1 sequence (P42345 1362-2549): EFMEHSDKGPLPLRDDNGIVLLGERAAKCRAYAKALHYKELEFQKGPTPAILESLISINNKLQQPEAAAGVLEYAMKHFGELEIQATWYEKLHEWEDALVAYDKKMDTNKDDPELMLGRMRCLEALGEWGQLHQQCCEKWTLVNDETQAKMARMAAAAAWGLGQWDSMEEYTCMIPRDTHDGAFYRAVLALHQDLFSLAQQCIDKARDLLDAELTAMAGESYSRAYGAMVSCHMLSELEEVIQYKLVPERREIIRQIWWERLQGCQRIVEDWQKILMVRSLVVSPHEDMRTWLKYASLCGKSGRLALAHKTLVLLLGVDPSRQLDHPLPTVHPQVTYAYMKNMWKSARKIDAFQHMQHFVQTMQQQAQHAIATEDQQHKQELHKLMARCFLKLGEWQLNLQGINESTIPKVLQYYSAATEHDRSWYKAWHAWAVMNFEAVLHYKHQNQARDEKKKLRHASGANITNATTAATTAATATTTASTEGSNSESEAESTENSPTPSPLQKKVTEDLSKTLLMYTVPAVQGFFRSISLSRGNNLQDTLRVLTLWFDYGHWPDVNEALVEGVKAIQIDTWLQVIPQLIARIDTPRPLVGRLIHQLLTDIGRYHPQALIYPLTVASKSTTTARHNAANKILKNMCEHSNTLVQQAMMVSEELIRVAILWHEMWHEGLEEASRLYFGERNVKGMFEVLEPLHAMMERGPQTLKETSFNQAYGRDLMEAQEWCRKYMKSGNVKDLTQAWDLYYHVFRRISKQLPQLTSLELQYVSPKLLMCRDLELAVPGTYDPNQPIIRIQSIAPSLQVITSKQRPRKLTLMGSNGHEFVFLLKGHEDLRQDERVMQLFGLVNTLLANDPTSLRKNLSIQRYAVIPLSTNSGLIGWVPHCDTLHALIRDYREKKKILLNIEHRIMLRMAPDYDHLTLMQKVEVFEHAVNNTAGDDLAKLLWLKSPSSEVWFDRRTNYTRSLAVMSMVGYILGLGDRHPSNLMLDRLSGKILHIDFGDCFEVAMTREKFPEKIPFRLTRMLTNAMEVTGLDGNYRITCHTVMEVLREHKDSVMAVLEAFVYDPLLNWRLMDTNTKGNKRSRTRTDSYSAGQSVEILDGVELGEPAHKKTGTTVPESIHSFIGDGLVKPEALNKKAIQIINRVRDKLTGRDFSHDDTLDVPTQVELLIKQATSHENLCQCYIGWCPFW
Chain of PI3Kα (P42336 whole entry, species assumed): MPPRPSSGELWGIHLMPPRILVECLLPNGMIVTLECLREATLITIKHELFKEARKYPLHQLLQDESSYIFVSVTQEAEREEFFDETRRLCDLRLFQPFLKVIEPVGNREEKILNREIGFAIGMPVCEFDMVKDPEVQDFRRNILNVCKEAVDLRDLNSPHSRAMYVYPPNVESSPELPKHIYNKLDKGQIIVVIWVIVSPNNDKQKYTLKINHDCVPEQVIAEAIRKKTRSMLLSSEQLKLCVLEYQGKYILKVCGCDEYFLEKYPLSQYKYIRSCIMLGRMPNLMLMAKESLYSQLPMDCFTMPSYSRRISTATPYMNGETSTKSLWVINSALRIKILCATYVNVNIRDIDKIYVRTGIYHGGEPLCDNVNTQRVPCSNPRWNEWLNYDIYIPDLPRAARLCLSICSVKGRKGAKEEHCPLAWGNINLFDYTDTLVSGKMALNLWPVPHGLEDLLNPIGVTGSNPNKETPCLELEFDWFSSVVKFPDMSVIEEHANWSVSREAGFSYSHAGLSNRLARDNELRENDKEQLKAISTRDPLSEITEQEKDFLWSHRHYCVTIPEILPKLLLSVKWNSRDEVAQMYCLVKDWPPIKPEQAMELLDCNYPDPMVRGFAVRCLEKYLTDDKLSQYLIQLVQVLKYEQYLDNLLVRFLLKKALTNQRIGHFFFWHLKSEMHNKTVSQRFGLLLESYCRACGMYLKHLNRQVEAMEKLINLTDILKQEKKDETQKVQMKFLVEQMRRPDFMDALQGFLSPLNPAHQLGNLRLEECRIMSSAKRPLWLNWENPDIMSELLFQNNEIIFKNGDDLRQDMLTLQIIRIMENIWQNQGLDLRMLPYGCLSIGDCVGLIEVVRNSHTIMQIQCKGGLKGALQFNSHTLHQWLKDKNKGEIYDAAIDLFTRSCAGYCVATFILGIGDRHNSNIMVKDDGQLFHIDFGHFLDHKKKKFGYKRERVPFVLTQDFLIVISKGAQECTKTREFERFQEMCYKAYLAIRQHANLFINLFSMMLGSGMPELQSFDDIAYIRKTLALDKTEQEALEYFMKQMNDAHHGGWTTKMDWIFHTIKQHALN
Chain of PI3Kα (P27986 whole entry partner, species assumed): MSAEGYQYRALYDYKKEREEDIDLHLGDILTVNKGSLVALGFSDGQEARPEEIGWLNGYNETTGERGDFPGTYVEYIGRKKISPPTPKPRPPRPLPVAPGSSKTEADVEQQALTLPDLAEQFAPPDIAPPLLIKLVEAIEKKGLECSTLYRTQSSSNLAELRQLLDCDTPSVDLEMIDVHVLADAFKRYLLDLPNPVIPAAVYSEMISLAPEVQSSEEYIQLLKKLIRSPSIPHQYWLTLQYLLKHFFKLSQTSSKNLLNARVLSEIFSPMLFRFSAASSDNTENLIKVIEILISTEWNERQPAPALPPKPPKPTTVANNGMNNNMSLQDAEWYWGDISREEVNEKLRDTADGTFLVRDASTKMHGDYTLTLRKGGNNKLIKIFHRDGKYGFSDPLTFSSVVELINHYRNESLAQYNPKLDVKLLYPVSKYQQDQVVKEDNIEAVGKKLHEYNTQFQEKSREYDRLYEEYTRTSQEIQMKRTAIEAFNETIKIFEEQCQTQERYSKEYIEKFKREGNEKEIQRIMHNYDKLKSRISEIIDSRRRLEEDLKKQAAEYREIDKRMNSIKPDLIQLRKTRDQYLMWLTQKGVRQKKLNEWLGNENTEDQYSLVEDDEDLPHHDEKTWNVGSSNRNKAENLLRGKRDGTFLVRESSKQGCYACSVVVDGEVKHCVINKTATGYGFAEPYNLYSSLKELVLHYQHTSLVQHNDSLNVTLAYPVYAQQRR

In the case of `Cc1nc(N)ncc1-c1nc(N2CCOCC2)c2nc(N3CCC(C(N)=O)CC3)n(CC3CC3)c2n1` [Example 36, 1-[2-(2-Amino-4-methylpyrimidin-5-yl)-9-(cyclopropylmethyl)-6-morpholin-4-yl-9H-purin-8-yl]piperidine-4-carboxamide], the GI50 [1] is reported as at most 5 µM, the GI50 [2] is reported as at most 5 µM and the IC50 (PI3Kα) is reported as under 10 nM. For the same molecule, the IC50 [3] was 100 to 500 nM and the GI50 [4] was at most 5 µM.

Molecule `Cc1nc(N)ncc1-c1nc(N2CCOCC2)c2nc(N3CCC(CO)CC3)n(CC3CC3)c2n1` [Example 37, {1-[2-(2-Amino-4-methylpyrimidin-5-yl)-9-(cyclopropylmethyl)-6-morpholin-4-yl-9H-purin-8-yl]piperidin-4-yl}methanol] has a GI50 [1] of at most 5 µM, a GI50 [2] of at most 5 µM and an IC50 (PI3Kα) of 10 to 20 nM. For the same molecule, the IC50 [3] was 100 to 500 nM and the GI50 [4] was at most 5 µM.

For `C[C@@H]1CN(c2nc3c(N4CCOCC4)nc(-c4cnc(N)nc4)nc3n2CC2CC2)C[C@H](C)N1S(C)(=O)=O` [Example 38, 5-{9-(Cyclopropylmethyl)-8-[cis-3,5-dimethyl-4-(methylsulfonyl)piperazin-1-yl]-6-morpholin-4-yl-9H-purin-2-yl}pyrimidin-2-amine], the GI50 [1] was at most 5 µM, the GI50 [2] was at most 5 µM and the IC50 (PI3Kα) was 10 to 20 nM. The IC50 [3] was 10 to 30 nM and the GI50 [4] was at most 5 µM.

With `CNc1ncc(-c2nc(N3CCOCC3)c3nc(N4CCOCC4)n(CC4CC4)c3n2)cn1` [Example 39, 5-[9-(Cyclopropylmethyl)-6,8-dimorpholin-4-yl-9H-purin-2-yl]-N-methylpyrimidin-2-amine] the GI50 [1] was at most 5 µM, the GI50 [2] was at most 5 µM and the IC50 (PI3Kα) was under 10 nM. It also gave an IC50 [3] of 30 to 100 nM and a GI50 [4] of at most 5 µM.

In the case of `CN(C)CC(=O)N1CCN(c2nc3c(N4CCOCC4)nc(-c4cnc(N)nc4)nc3n2CC2CC2)CC1` [Example 40, 5-[9-(Cyclopropylmethyl)-8-{4-[(dimethylamino)acetyl]piperazin-1-yl}-6-morpholin-4-yl-9H-purin-2-yl]pyrimidin-2-amine], the GI50 [1] is reported as at most 5 µM, the GI50 [2] is reported as at most 5 µM and the IC50 (PI3Kα) is reported as 10 to 20 nM. It also gave an IC50 [3] of 100 to 500 nM and a GI50 [4] of at most 5 µM.

For `CNCC(=O)N1CCN(c2nc3c(N4CCOCC4)nc(-c4cnc(N)nc4)nc3n2CC2CC2)CC1` [Example 41, 5-[9-(Cyclopropylmethyl)-8-{4-[(methylamino)acetyl]piperazin-1-yl}-6-morpholin-4-yl-9H-purin-2-yl]pyrimidin-2-amine], the GI50 [1] was at most 5 µM, the GI50 [2] was at most 5 µM and the IC50 (PI3Kα) was under 10 nM. The IC50 [3] was 30 to 100 nM and the GI50 [4] was at most 5 µM.

With `NCC(=O)N1CCN(c2nc3c(N4CCOCC4)nc(-c4cnc(N)nc4)nc3n2CC2CC2)CC1` [Example 42, 5-{8-[4-(Aminoacetyl)piperazin-1-yl]-9-(cyclopropylmethyl)-6-morpholin-4-yl-9H-purin-2-yl}pyrimidin-2-amine] the GI50 [1] was at most 5 µM, the GI50 [2] was at most 5 µM and the IC50 (PI3Kα) was under 10 nM. The IC50 [3] was 30 to 100 nM and the GI50 [4] was at most 5 µM.

`CNc1ncc(-c2nc(N3CCOCC3)c3nc(N4CCN(S(C)(=O)=O)CC4)n(CC4CC4)c3n2)c(C)n1` [Example 43] showed a GI50 [1] of at most 5 µM, a GI50 [2] of at most 5 µM and an IC50 (PI3Kα) of 10 to 20 nM. For the same molecule, the IC50 [3] was 100 to 500 nM and the GI50 [4] was at most 5 µM.

Work on `CC(C)Cn1c(N2CCN(C(=O)N(C)C)CC2)nc2c(N3CCOCC3)nc(-c3cnc(N)nc3)nc21` [Example 45, 4-[2-(2-Aminopyrimidin-5-yl)-9-isobutyl-6-morpholin-4-yl-9H-purin-8-yl]-N,N-dimethylpiperazine-1-carboxamide] yielded a GI50 [1] of at most 5 µM, a GI50 [2] of at most 5 µM and an IC50 (PI3Kα) of 20 to 50 nM. For the same molecule, the IC50 [3] was 30 to 100 nM and the GI50 [4] was at most 5 µM.

With `CC(C)n1c(N2CCN(S(C)(=O)=O)CC2)nc2c(N3CCOCC3)nc(-c3cnc(N)nc3)nc21` [Example 46, 5-{9-Isopropyl-8-[4-(methylsulfonyl)piperazin-1-yl]-6-morpholin-4-yl-9H-purin-2-yl}pyrimidin-2-amine] the GI50 [1] was at most 5 µM, the GI50 [2] was at most 5 µM and the IC50 (PI3Kα) was 20 to 50 nM. For the same molecule, the IC50 [3] was 30 to 100 nM and the GI50 [4] was at most 5 µM.

With `CC(C)Cn1c(N2CCCN(S(C)(=O)=O)CC2)nc2c(N3CCOCC3)nc(-c3cnc(N)nc3)nc21` [Example 49, 5-{9-Isobutyl-8-[4-(methylsulfonyl)-1,4-diazepan-1-yl]-6-morpholin-4-yl-9H-purin-2-yl}pyrimidin-2-amine] the GI50 [1] was at most 5 µM, the GI50 [2] was at most 5 µM and the IC50 (PI3Kα) was under 10 nM. The IC50 [3] was 10 to 30 nM and the GI50 [4] was at most 5 µM.

`CC(C)Cn1c(N2CCN[C@@H](C)C2)nc2c(N3CCOCC3)nc(-c3cnc(N)nc3)nc21` [Example 51, 5-{9-Isobutyl-8-[(3S)-3-methylpiperazin-1-yl]-6-morpholin-4-yl-9H-purin-2-yl}pyrimidin-2-amine] showed a GI50 [1] of at most 5 µM, a GI50 [2] of at most 5 µM and an IC50 (PI3Kα) of 10 to 20 nM. For the same molecule, the IC50 [3] was 10 to 30 nM and the GI50 [4] was at most 5 µM.

`CC(C)Cn1c(N2CCN[C@H](C)C2)nc2c(N3CCOCC3)nc(-c3cnc(N)nc3)nc21` [Example 52, 5-{9-Isobutyl-8-[(3R)-3-methylpiperazin-1-yl]-6-morpholin-4-yl-9H-purin-2-yl}pyrimidin-2-amine] showed a GI50 [1] of at most 5 µM, a GI50 [2] of at most 5 µM and an IC50 (PI3Kα) of under 10 nM. It also gave an IC50 [3] of 30 to 100 nM and a GI50 [4] of at most 5 µM.

`Nc1ncc(-c2nc(N3CCOCC3)c3nc(N4CCN(C(=O)Cn5ccnc5)CC4)n(CC4CC4)c3n2)cn1` [Example 56, 5-{9-(Cyclopropylmethyl)-8-[4-(1H-imidazol-1-ylacetyl)piperazin-1-yl]-6-morpholin-4-yl-9H-purin-2-yl}pyrimidin-2-amine] gave a GI50 [1] of at most 5 µM, a GI50 [2] of at most 5 µM and an IC50 (PI3Kα) of under 10 nM. It also gave an IC50 [3] of 10 to 30 nM and a GI50 [4] of at most 5 µM.

`C[C@H]1CN(c2nc3c(N4CCOCC4)nc(-c4cnc(N)nc4)nc3n2CC(F)(F)F)CCN1` [Example 58, 5-{8-[(3S)-3-Methylpiperazin-1-yl]-6-morpholin-4-yl-9-(2,2,2-trifluoroethyl)-9H-purin-2-yl}pyrimidin-2-amine] gave a GI50 [1] of at most 5 µM, a GI50 [2] of at most 5 µM and an IC50 (PI3Kα) of under 10 nM. For the same molecule, the IC50 [3] was 10 to 30 nM and the GI50 [4] was at most 5 µM.

`C[C@@H]1CN(c2nc3c(N4CCOCC4)nc(-c4cnc(N)nc4)nc3n2CC(F)(F)F)CCN1` [Example 59, 5-{8-[(3R)-3-Methylpiperazin-1-yl]-6-morpholin-4-yl-9-(2,2,2-trifluoroethyl)-9H-purin-2-yl}pyrimidin-2-amine] was tested, and the GI50 [1] was at most 5 µM, the GI50 [2] was at most 5 µM and the IC50 (PI3Kα) was under 10 nM. For the same molecule, the IC50 [3] was 10 to 30 nM and the GI50 [4] was at most 5 µM.

`Cc1nc(N)ncc1-c1nc(N2CCOCC2)c2nc(N3CC[C@@H](NS(C)(=O)=O)C3)n(CC3CC3)c2n1` [Example 72, N-{(3R)-1-[2-(2-Amino-4-methylpyrimidin-5-yl)-9-(cyclopropylmethyl)-6-morpholin-4-yl-9H-purin-8-yl]pyrrolidin-3-yl}methanesulfonamide] gave a GI50 [1] of at most 5 µM, a GI50 [2] of at most 5 µM and an IC50 (PI3Kα) of under 10 nM. The IC50 [3] was at least 500 nM and the GI50 [4] was at most 5 µM.

Molecule `Cc1nc(N)ncc1-c1nc(N2CCOCC2)c2nc(N3CC[C@H](NS(C)(=O)=O)C3)n(CC3CC3)c2n1` [Example 73, N-{(3S)-1-[2-(2-Amino-4-methylpyrimidin-5-yl)-9-(cyclopropylmethyl)-6-morpholin-4-yl-9H-purin-8-yl]pyrrolidin-3-yl}methanesulfonamide] has a GI50 [1] of at most 5 µM, a GI50 [2] of at most 5 µM and an IC50 (PI3Kα) of under 10 nM. It also gave an IC50 [3] of at least 500 nM and a GI50 [4] of at most 5 µM.

`C[C@H]1CN(c2nc3c(N4CCOCC4)nc(-c4cnc(N)nc4)nc3n2CC2CC2)CCN1` [Example 91, 5-{9-(Cyclopropylmethyl)-8-[(3S)-3-methylpiperazin-1-yl]-6-morpholin-4-yl-9H-purin-2-yl}pyrimidin-2-amine] gave a GI50 [1] of at most 5 µM, a GI50 [2] of at most 5 µM and an IC50 (PI3Kα) of under 10 nM. For the same molecule, the IC50 [3] was 10 to 30 nM and the GI50 [4] was at most 5 µM.

Molecule `C[C@@H]1CN(c2nc3c(N4CCOCC4)nc(-c4cnc(N)nc4)nc3n2CC2CC2)CCN1` [Example 94, 5-{9-(Cyclopropylmethyl)-8-[(3R)-3-methylpiperazin-1-yl]-6-morpholin-4-yl-9H-purin-2-yl}pyrimidin-2-amine] has a GI50 [1] of at most 5 µM, a GI50 [2] of at most 5 µM and an IC50 (PI3Kα) of under 10 nM. The IC50 [3] was 10 to 30 nM and the GI50 [4] was at most 5 µM.

For `C[C@@H]1CN(c2nc3c(N4CCOCC4)nc(-c4cnc(N)nc4)nc3n2CC(F)(F)F)C[C@H](C)N1C(=O)CO` [Example 120], the GI50 [1] was at most 5 µM, the GI50 [2] was at most 5 µM and the IC50 (PI3Kα) was under 10 nM. The IC50 [3] was under 10 nM and the GI50 [4] was at most 5 µM.

`CC(=O)N1CCN(c2nc3c(N4CCOCC4)nc(-c4cnc(N)nc4)nc3n2CC(F)(F)F)CC1(C)C` [Example 122, 5-[8-(4-Acetyl-3,3-dimethylpiperazin-1-yl)-6-morpholin-4-yl-9-(2,2,2-trifluoroethyl)-9H-purin-2-yl]pyrimidin-2-amine] showed a GI50 [1] of at most 5 µM, a GI50 [2] of at most 5 µM and an IC50 (PI3Kα) of under 10 nM. The IC50 [3] was under 10 nM and the GI50 [4] was at most 5 µM.
